Measurements from US10765659B2, “Potentiated tulathromycin” (SEPTEOS, priority 2016, dated 2020).
Where two headings read alike, the source gives them in different places.

Tests used:
[1] = tested on: Actinobacillus pleuropneumoniae; test: MIC measurement in solid agar medium (CLSI); format: cell-based
Experimental: (§1) “MIC” means “minimal inhibitory concentration”, which is the lowest concentration of substance at which microbial growth is no longer observed after 18 to 24 hours of contact under conditions favourable to microbial growth.
(§2) The minimum inhibitory concentration measurement tests are performed in a solid agar medium according to current international standards (CLSI standards M7-A9 January 12): dispersion of the compounds to be tested in Mueller Hinton agar. An adaptation relating to the hydrophobicity of the compounds and compositions is however necessary to disperse them in the medium: the compounds are diluted in a solvent. The compounds and compositions incorporated in the agar may be first diluted in one or more solvents (Tween® 80 diluted in water, Tween@ 80 diluted in propylene, DMSO diluted in water). The medium may be cation-adjusted. The strains are deposited on the surface of the agar with a Steers apparatus. In the examples, various methods for dissolving the products are tested in parallel to circumvent problems related to the water/solvent distribution coefficient of the molecules (antimicrobial and potentiator) as the bacteria grow only in the aqueous phase. The technical constraint will not affect the in vivo tests. The same dilution methods can be used in liquid media (microplates and tubes). The same methodology is used with fungi.
(§3) MIC measurement: The minimum inhibitory concentration measurement tests are performed in solid agar medium according to current international standards (CLSI standards), according to the protocol defined above. The compounds and compositions incorporated in the agar may be first diluted in one or more solvents (ethanol, or DMSO diluted in water).

[2] = tested on: E. coli; test: MIC measurement in solid agar medium (CLSI); format: cell-based
Experimental: as §1, §2, §3

[3] = tested on: Staphylococcus; test: MIC measurement in solid agar medium (CLSI); format: cell-based
Experimental: as §1, §2, §3

[4] = tested on: Enterococcus; test: MIC measurement in solid agar medium (CLSI); format: cell-based
Experimental: as §1, §2, §3

[5] = tested on: Streptococcus suis; test: MIC measurement in solid agar medium (CLSI); format: cell-based
Experimental: as §1, §2, §3

[6] = tested on: strain 13043 (Actinobacillus pleuropneumoniae); test: Growth test / bactericidal action test in liquid medium; format: cell-based; settings: strain 13043, DMSO, tulathromycin at 16 times its MIC, cineole at 1 mg/L
Experimental: (§4) Growth tests are performed in liquid medium with prior dispersion of the antibiotic booster in a suitable solvent (here DMSO).
(§5) Bacterial growth kinetics are measured in the presence of tulathromycin (at a concentration of 4 or 16 times its MIC); tulathromycin (at a concentration of 4 or 16 times its MIC) and 1,8-cineole at a mass ratio of 1:1; and tulathromycin (at a concentration of 4 or 16 times its MIC) and 1 mg of 1,8-cineole.
2 Growth Test on Strain 13043 (Actinobactllus Pleuropneumonlae) […]
diamond: control (bacteria alone in DMSO) square: tulathromycin diluted in DMSO at a concentration of 16 times its MIC triangle: tulathromycin and cineole, diluted in DMSO, tulathromycin is at a concentration of 16 times its MIC, cineole at 1 mg/L
Cross (x): cineole control, at 1 mg/L

[7] = tested on: Staphylococcus; test: Resistance test: resistant mutant colonies on Mueller Hinton plate; format: cell-based
Experimental: One hundred microlitres of a Mueller Hinton broth culture of the strain to be studied (heavy inoculum>10^10 CFU/mL) is spread on a Mueller Hinton plate containing an oil concentration equal to 0.5/1/2/4 times the MIC of tulathromycin. After 48 hours of incubation, the presence or absence of colonies likely to be resistant mutants are observed.

[8] = tested on: microorganisms grown in planktonic and biofilm cultures; settings: Hendry et al., J Antimicrob Chemother 2009; cited from earlier work
[9] = tested on: strain 13120 (E. coli); test: Growth test / bactericidal action test in liquid medium; format: cell-based; settings: strain 13120, DMSO, tulathromycin at 4 times its MIC, cineole at mass ratio 1:1 or 1 mg/L
Experimental: as §4, §5
1 Growth Test on Strain 13120 (Genus E. coli) […]
diamond: control (bacteria alone in DMSO) square: tulathromycin diluted in DMSO at a concentration of 4 times its MIC triangle: tulathromycin and cineole, diluted in DMSO, tulathromycin is at a concentration of 4 times its MIC, the tulathromycin/cineole mass ratio is 1:1 Cross (x): tulathromycin and cineole, diluted in DMSO, tulathromycin is at a concentration of 4 times its MIC, cineole at 1 mg/L

[10] = cat; cited from earlier work
[11] = rat; cited from earlier work

## CCCNC[C@]1(O)[C@H](C)O[C@@H](O[C@H]2[C@H](C)[C@@H](O[C@@H]3O[C@H](C)C[C@H](N(C)C)[C@H]3O)[C@](C)(O)C[C@@H](C)CN[C@H](C)[C@@H](O)[C@](C)(O)[C@@H](CC)OC(=O)[C@@H]2C)C[C@@]1(C)OC [ATB]
[1]; strain 13012, DMSO
  MIC: 2 µg/mL
[1]; strain 13012, EtOH
  MIC: 2 µg/mL
[1]; strain 13030, DMSO
  MIC: 0.5 µg/mL
[1]; strain 13030, EtOH
  MIC: 0.5 µg/mL
[1]; strain 13032, DMSO
  MIC: 0.5 µg/mL
[1]; strain 13032, EtOH
  MIC: 0.5 µg/mL
[1]; strain 13041, DMSO
  MIC: 0.5 µg/mL
[1]; strain 13041, EtOH
  MIC: 0.5 µg/mL
[1]; strain 13042, DMSO
  MIC: 0.5 µg/mL
[1]; strain 13042, EtOH
  MIC: 0.6 µg/mL
[1]; strain 13043, DMSO
  MIC: 0.5 µg/mL
[1]; strain 13043, EtOH
  MIC: 0.6 µg/mL
[1]; strain 13043, value used for growth test
  MIC of tulathromycin: 0.5 mg
[1]; strain 13045, DMSO
  MIC: 0.5 µg/mL
[1]; strain 13045, EtOH
  MIC: 0.6 µg/mL
[2]; strain 13120, DMSO
  MIC: 2 µg/mL
[2]; strain 13120, EtOH
  MIC: 2.7 µg/mL
[2]; strain 13120, value used for growth test
  MIC of tulathromycin: 2 µg/mL
[2]; strain 13121, DMSO
  MIC: 2 µg/mL
[2]; strain 13121, EtOH
  MIC: 2.7 µg/mL
[2]; strain 13122, DMSO
  MIC: 2 µg/mL
[2]; strain 13122, EtOH
  MIC: 2 µg/mL
[2]; strain 13123, DMSO
  MIC: 2 µg/mL
[2]; strain 13123, EtOH
  MIC: 2 µg/mL
[2]; strain 13124, DMSO
  MIC: 1.5 µg/mL
[2]; strain 13124, EtOH
  MIC: 2 µg/mL
[2]; strain 13125, DMSO
  MIC: 1.5 µg/mL
[2]; strain 13125, EtOH
  MIC: 1.5 µg/mL
[2]; strain 13126, DMSO
  MIC: 2 µg/mL
[2]; strain 13126, EtOH
  MIC: 2 µg/mL
[2]; strain 13128, DMSO
  MIC: 2 µg/mL
[2]; strain 13128, EtOH
  MIC: 2 µg/mL
[2]; strain 13129, DMSO
  MIC: 2.7 µg/mL
[2]; strain 13129, EtOH
  MIC: 3.6 µg/mL
[2]; strain 13130, DMSO
  MIC: 2 µg/mL
[2]; strain 13130, EtOH
  MIC: 3.6 µg/mL
[2]; strain 13131, DMSO
  MIC: 1.5 µg/mL
[2]; strain 13131, EtOH
  MIC: 1.5 µg/mL
[2]; strain 13132, DMSO
  MIC: 2 µg/mL
[2]; strain 13132, EtOH
  MIC: 2.7 µg/mL
[2]; strain 13133, DMSO
  MIC: 1.5 µg/mL
[2]; strain 13133, EtOH
  MIC: 2 µg/mL
[2]; strain 13134, DMSO
  MIC: 1.5 µg/mL
[2]; strain 13134, EtOH
  MIC: 1.5 µg/mL
[2]; strain 13170, DMSO
  MIC: 1.5 µg/mL
[2]; strain 13170, EtOH
  MIC: 2 µg/mL
[2]; strain 13171, DMSO
  MIC: 2.7 µg/mL
[2]; strain 13171, EtOH
  MIC: 3.6 µg/mL
[2]; strain 13172, DMSO
  MIC: 1.5 µg/mL
[2]; strain 13172, EtOH
  MIC: 1.5 µg/mL
[2]; strain 13173, DMSO
  MIC: 1.5 µg/mL
[2]; strain 13173, EtOH
  MIC: 1.5 µg/mL
[2]; strain 13174, DMSO
  MIC: 2 µg/mL
[2]; strain 13174, EtOH
  MIC: 2 µg/mL
[2]; strain 13175, DMSO
  MIC: 2 µg/mL
[2]; strain 13175, EtOH
  MIC: 3.6 µg/mL
[2]; strain Q54IE2, EtOH
  MIC: 0.8 µg/mL
[2]; strain Q96CEB, EtOH
  MIC: 1.9 µg/mL
[3]; strain 8146, EtOH
  MIC: 0.45 µg/mL
[3]; strain 8147, EtOH
  MIC: 0.45 µg/mL
[3]; strain 8148, EtOH
  MIC: 0.45 µg/mL
[3]; strain 8149, EtOH
  MIC: 0.45 µg/mL
[3]; strain 8238, EtOH
  MIC: 0.45 µg/mL
[3]; strain 12216, EtOH
  MIC: 2.53 µg/mL
[3]; strain 13218, EtOH
  MIC: 1.07 µg/mL
[3]; strain 13221, EtOH
  MIC: 1.07 µg/mL
[4]; Enterococcus strain without reference (Table 3, r6), EtOH
  MIC: 0.9 µg/mL
[4]; Enterococcus strain without reference (Table 3, r7), EtOH
  MIC: 1.7 µg/mL
[4]; strain 8152, EtOH
  MIC: 1 µg/mL
[4]; strain 8153, EtOH
  MIC: 1.42 µg/mL
[5]; strain 13092, DMSO
  MIC: 1.1 µg/mL
[5]; strain 13092, EtOH
  MIC: 1.1 µg/mL
[6]
  Bacterial growth kinetics / number of bacteria (FIG. 2): bacteriostatic
[7]; S. aureus (strain 8147), summary of Table 4
  Development of mutants: countless mutants
[7]; strain 8146, ethanol solvent, 0.5 times the MIC of tulathromycin
  Colonies likely to be resistant mutants after 48 hours: overgrown
[7]; strain 8146, ethanol solvent, 1 times the MIC of tulathromycin
  Colonies likely to be resistant mutants after 48 hours: overgrown
[7]; strain 8146, ethanol solvent, 2 times the MIC of tulathromycin
  Colonies likely to be resistant mutants after 48 hours: overgrown
[7]; strain 8146, ethanol solvent, 4 times the MIC of tulathromycin
  Colonies likely to be resistant mutants after 48 hours: 0
[7]; strain 8147, ethanol solvent, 0.5 times the MIC of tulathromycin
  Colonies likely to be resistant mutants after 48 hours: overgrown
[7]; strain 8147, ethanol solvent, 1 times the MIC of tulathromycin
  Colonies likely to be resistant mutants after 48 hours: overgrown
[7]; strain 8147, ethanol solvent, 2 times the MIC of tulathromycin
  Colonies likely to be resistant mutants after 48 hours: overgrown
[7]; strain 8147, ethanol solvent, 4 times the MIC of tulathromycin
  Colonies likely to be resistant mutants after 48 hours: overgrown

## CC12CCC(CC1)C(C)(C)O2 [cineole, 1,8-cineole]
[8]
  MIC of cineole in the publication: 8000 to 64000 µg/mL
[6]
  Bacterial growth kinetics / number of bacteria (FIG. 2): significantly decrease the number of bacteria
[9]
  Bacterial growth kinetics / bactericidal action (FIG. 1): increase the bactericidal action of tulathromycin
[7]; strain 8146, cineole added to tulathromycin, summary of Table 5
  Development of mutants: decreases the development of mutants

## Cc1ccc(C(C)C)cc1O [carvacrol]
[10]
  lowest oral lethal dose: 100 mg/kg
[11]
  lowest oral lethal dose: 100 mg/kg
